Consider 3 substances from EP0435725B1, “DNA having the genetic information of phospholipase D and its use” (Asahi Kasei Kogyo Kabushiki Kaisha, priority 1989, dated 1991).

The experiment concerns phospholipase D. Description: Substrate specificity of phospholipase D (choline release, choline oxidase/peroxidase colorimetry at 500 nm). The class given is biochemical, Streptomyces chromofuscus. As to conditions: substrate emulsion 10 mM, 0.1 ml; 37°C, 10 minutes, pH 8.0; relative to activity on lysolecithin as 100. As to the method:
To the reaction mixture having a composition as above was added 0.05 ml of the enzyme solution. After reaction it 37°C for 10 minutes, the mixture was boiled for 5 minutes to stop the reaction. The reaction solution was cooled to 37°C. Then, 0.1 ml of 4-aminoantipyrine (3 mg/ml), 0.1 ml of Phenol (2 mg/ml), 0.1 ml of peroxidase (2 U/ml), 0.1 ml of choline oxidase (30 U/ml) and 0.1 ml of water were added to the solution, the reaction was conducted at 37°C for 20 minutes before adding 2 ml of 1% Triton X100 to the reaction mixture for measuring the absorbance at 500 nm. It is defined that 1 Unit (U) of phospholipase D has an enzyme activity of producing 1 […] of choline. The enzyme activity is calculated from the following equation: U/ml = ΔA₅₀₀ x 0.55 [formula] wherein ΔA₅₀₀ denotes the absorbance at 500 nm.
The same procedure as described above for the reaction solution for the measurement of the activity was repeated except that emulsions (10 mM, 0.1 ml) of lecithin, lysolecithin and sphingomyelin, respectively, as substrates were used. The amount of choline was determined, and the relative enzyme activities are calculated in terms of the enzyme activity to lysolecithin as 100.
Lysolecithin: the “Relative Activity” value is 100%.

In the case of Sphingomyelin, the “Relative Activity” value was 19%.

For the substance phosphatidylcholine [Lecithin], the “Relative Activity” value is given as 51%.
